Tests used:
Type in all cases: in vivo
[1] = system: Beet Armyworm (Spodoptera exigua) ("BAW"); experiment: Bioassay on beet armyworm (BAW), 128-well diet tray assay; settings: for mortality at 50 µg/cm2: 168 h, 50 μg/cm^2 on artificial diet, second instar BAW larvae, 25° C., five to seven days, average of eight wells, read-out: BAW % Control (or Mortality) rating; for pest or weed control at 50 µg/cm2: Table ABC (FB), activity rating class, read-out: BAW (Biological Results, Insect species)
Outline: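 Percent mortality, averaged across eight wells, was read after five to seven days at 25° C. under 14:10 light-dark. Each well held one to five second-instar larvae on artificial diet that had been treated with 50 μg/cm^2 compound in 90:10 acetone-water and dried.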

[2] = system: Cabbage Looper (Trichoplusia ni) ("CL"); experiment: Bioassay on cabbage looper (CL), 128-well diet tray assay; settings: for mortality at 50 µg/cm2: 168 h, 50 μg/cm^2 on artificial diet, second instar CL larvae, 25° C., five to seven days, average of eight wells, read-out: CL % Control (or Mortality) rating; for pest or weed control at 50 µg/cm2: Table ABC (FB), activity rating class, read-out: CL (Biological Results, Insect species)
Outline: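 Percent mortality, averaged across eight replicate wells, was read after five to seven days at 25 °C under a 14:10 photoperiod. Each well held one to five second-instar T. ni on diet carrying a dried 50 μg/cm^2 dose applied in acetone-water 90:10.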

[3] = system: Green Peach Aphid ("GPA") (Myzus persicae); experiment: Bioassay on green peach aphid (GPA), foliar spray on cabbage seedlings; settings: for mortality at 200 ppm: Myzus persicae, foliar, 72 h, 200 ppm spray on infested cabbage seedlings, three days, Abbott corrected % control, read-out: GPA % Control (or Mortality) rating; for GPA (Biological Results, Insect species): Table ABC (FB), activity rating class
Outline: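 Cabbage seedlings (2-3 true leaves) infested with 20-50 wingless adult and nymph aphids one day before spraying to runoff at 200 ppm in aqueous 0.025% Tween 20 with 20% acetone/methanol. Live aphids counted after three days at ~25 °C; % control by Abbott's correction versus solvent-check plants.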

[4] = system: Yellow Fever Mosquito "YFM" (Aedes aegypti); settings: for YFM % Control (or Mortality) rating: about 1 day-old larvae, 96-well plate, room temperature, 3 days; for YFM (Biological Results, Insect species): Table ABC (FB), activity rating class
Outline: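 About 1 day-old Aedes aegypti larvae in liver-powder water added to wells holding compound diluted from 4000 ppm DMSO stock with 90:10 water:acetone, 6 replicate plates. Plates kept covered at room temperature for 3 days. Wells scored for mortality and reported as rating categories.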

## Cc1ccc(C(C)C)c(N2C(=O)CS/C2=N\C(=O)NCCc2ccc(-c3ncn(-c4ccc(OC(F)(F)C(F)(F)F)cc4)n3)cc2)c1 [F9, (Z)-1-(3-(2-isopropyl-5-methylphenyl)-4-oxothiazolidin-2-ylidene)-3-(4-(1-(4-(perfluoroethoxy)phenyl)-1H-1,2,4-triazol-3-yl)phenethyl)urea]
[1]
  mortality at 50 µg/cm2: 50 to 100%
[2]
  mortality at 50 µg/cm2: 50 to 100%
[3]
  mortality at 200 ppm: 0%
[4]
  YFM % Control (or Mortality) rating: A (80-100)

## Cc1ccc(C(C)C)c(N2C(=O)CS/C2=N\C(=O)NCC(C)c2ccc(-c3ncn(-c4ccc(OC(F)(F)F)cc4)n3)cc2)c1 (centres unmarked) [F10, (Z)-1-(3-(2-isopropyl-5-methylphenyl)-4-oxothiazolidin-2-ylidene)-3-(2-(4-(1-(4-(trifluoromethoxy)phenyl)-1H-1,2,4-triazol-3-yl)phenyl)propyl)urea]
[1]
  mortality at 50 µg/cm2: 50 to 100%
[2]
  mortality at 50 µg/cm2: 50 to 100%
[3]
  mortality at 200 ppm: 0 to 80%
[4]
  YFM % Control (or Mortality) rating: A (80-100)

## CC(C)c1ccccc1NC(=S)NC(=O)NCc1ccc(-c2ncn(-c3ccc(OC(F)(F)F)cc3)n2)cc1 [F14, N-[2-(propan-2-yl)phenyl]-N′-(4-{1-[4-(trifluoromethoxy)phenyl]-1H-1,2,4-triazol-3-yl}benzyl)dicarbonimidothioic diamide]
[1]
  mortality at 50 µg/cm2: 50 to 100%
[2]
  mortality at 50 µg/cm2: 50 to 100%
[3]
  mortality at 200 ppm: 0%
[4]
  YFM % Control (or Mortality) rating: A (80-100)

## Cc1ccc(C(C)C)c(NC(=S)NC(=O)NCCCc2ccc(-c3ncn(-c4ccc(OC(F)(F)F)cc4)n3)cc2)c1 [F21, 1-[(2-isopropyl-5-methyl-phenyl)carbamothioyl]-3-[3-[4-[1-[4-(trifluoromethoxy)phenyl]-1H-1,2,4-triazol-3-yl]phenyl]propyl]urea]
[1]
  mortality at 50 µg/cm2: 50 to 100%
[2]
  mortality at 50 µg/cm2: 50 to 100%
[3]
  mortality at 200 ppm: 0%
[4]
  YFM % Control (or Mortality) rating: A (80-100)

## CC(C)c1ccccc1N1C(=O)CS/C1=N\C(=O)NC1CC1c1ccc(-c2ncn(-c3ccc(OC(F)(F)F)cc3)n2)cc1 (centres unmarked) [F29, (Z)-1-(3-(2-isopropylphenyl)-4-oxothiazolidin-2-ylidene)-3-(2-(4-(1-(4-(trifluoromethoxy)phenyl)-1H-1,2,4-triazol-3-yl)phenyl)cyclopropyl)urea]
[1]
  mortality at 50 µg/cm2: 50 to 100%
[2]
  mortality at 50 µg/cm2: 50 to 100%
[3]
  mortality at 200 ppm: 0%
[4]
  YFM % Control (or Mortality) rating: A (80-100)

## CCC(Cc1ccc(-c2ncn(-c3ccc(OC(F)(F)F)cc3)n2)cc1)NC(=O)/N=C1\SCC(=O)N1c1cc(C)ccc1C(C)C (centres unmarked) [FB43, (Z)-1-(3-(2-isopropyl-5-methylphenyl)-4-oxothiazolidin-2-ylidene)-3-(1-(4-(1-(4-(trifluoromethoxy)phenyl)-1H-1,2,4-triazol-3-yl)phenyl)butan-2-yl)urea]
[1]
  pest or weed control at 50 µg/cm2: 50 to 100%
[2]
  pest or weed control at 50 µg/cm2: 50 to 100%
[3]
  GPA (Biological Results, Insect species): B (More than 0-Less than 80)
[4]
  YFM (Biological Results, Insect species): A (80-100)

## CCC(Cc1ccc(-c2ncn(-c3ccc(OC(F)(F)F)cc3)n2)cc1)NC(=O)/N=C1\SCC(=O)N1c1cc(Cl)ccc1C(C)C (centres unmarked) [FB44, (Z)-1-(3-(5-chloro-2-isopropylphenyl)-4-oxothiazolidin-2-ylidene)-3-(1-(4-(1-(4-(trifluoromethoxy)phenyl)-1H-1,2,4-triazol-3-yl)phenyl)butan-2-yl)urea]
[1]
  pest or weed control at 50 µg/cm2: 50 to 100%
[2]
  pest or weed control at 50 µg/cm2: 50 to 100%
[3]
  GPA (Biological Results, Insect species): B (More than 0-Less than 80)
[4]
  YFM (Biological Results, Insect species): A (80-100)

## CC(C)c1cc(F)ccc1N1C(=O)CS/C1=N\C(=O)NCCc1ccc(-c2ncn(-c3ccc(OC(F)(F)F)cc3)n2)cc1 [P28, (Z)-1-(3-(4-fluoro-2-isopropylphenyl)-4-oxothiazolidin-2-ylidene)-3-(4-(1-(4-(trifluoromethoxy)phenyl)-1H-1,2,4-triazol-3-yl)phenethyl)urea]
[1]
  mortality at 50 µg/cm2: 50 to 100%
[2]
  mortality at 50 µg/cm2: 50 to 100%
[3]
  mortality at 200 ppm: 0%
[4]
  YFM % Control (or Mortality) rating: A (80-100)

## COc1ccc(N2C(=O)CS/C2=N\C(=O)NCCc2ccc(-c3ncn(-c4ccc(OC(F)(F)F)cc4)n3)cc2)c(C)c1 [P44, (Z)-1-(3-(4-methoxy-2-methylphenyl)-4-oxothiazolidin-2-ylidene)-3-(4-(1-(4-(trifluoromethoxy)phenyl)-1H-1,2,4-triazol-3-yl)phenethyl)urea]
[1]
  mortality at 50 µg/cm2: 50 to 100%
[2]
  mortality at 50 µg/cm2: 50 to 100%
[3]
  mortality at 200 ppm: 0%
[4]
  YFM % Control (or Mortality) rating: A (80-100)

## CC(C)c1cccc(N2C(=O)CS/C2=N\C(=O)NCCc2ccc(-c3ncn(-c4ccc(OC(F)(F)F)cc4)n3)cc2)c1 [P51, (Z)-1-(3-(3-isopropylphenyl)-4-oxothiazolidin-2-ylidene)-3-(4-(1-(4-(trifluoromethoxy)phenyl)-1H-1,2,4-triazol-3-yl)phenethyl)urea]
[1]
  mortality at 50 µg/cm2: 50 to 100%
[2]
  mortality at 50 µg/cm2: 50 to 100%
[3]
  mortality at 200 ppm: 0 to 80%
[4]
  YFM % Control (or Mortality) rating: A (80-100)

## Cc1ccc(C(C)C)c(N2C(=O)CS/C2=N\C(=O)NCCc2ccc(-c3ncn(-c4ccc(C(F)(F)F)cc4)n3)cc2)c1 [P52, (Z)-1-(3-(2-isopropyl-5-methylphenyl)-4-oxothiazolidin-2-ylidene)-3-(4-(1-(4-(trifluoromethyl)phenyl)-1H-1,2,4-triazol-3-yl)phenethyl)urea]
[1]
  mortality at 50 µg/cm2: 50 to 100%
[2]
  mortality at 50 µg/cm2: 50 to 100%
[3]
  mortality at 200 ppm: 0%
[4]
  YFM % Control (or Mortality) rating: A (80-100)

## CCc1ccccc1N1C(=O)CS/C1=N\C(=O)NCCCCc1ccc(-c2ncn(-c3ccc(OC(F)(F)F)cc3)n2)cc1 [P145, P522, (Z)-1-(3-(2-ethylphenyl)-4-oxothiazolidin-2-ylidene)-3-(4-(4-(1-(4-(trifluoromethoxy)phenyl)-1H-1,2,4-triazol-3-yl)phenyl)butyl)urea]
[1]
  mortality at 50 µg/cm2: 50 to 100%
[2]
  mortality at 50 µg/cm2: 50 to 100%
[3]
  mortality at 200 ppm: 0%
[4]
  YFM % Control (or Mortality) rating: A (80-100)

## Cc1ccc(C(C)C)c(N2C(=O)CS/C2=N\C(=O)NCCCCc2ccc(-c3ncn(-c4ccc(OC(F)(F)F)cc4)n3)cc2)c1 [P150, P363, (Z)-1-(3-(2-isopropyl-5-methylphenyl)-4-oxothiazolidin-2-ylidene)-3-(4-(4-(1-(4-(trifluoromethoxy)phenyl)-1H-1,2,4-triazol-3-yl)phenyl)butyl)urea]
[1]
  mortality at 50 µg/cm2: 50 to 100%
[2]
  mortality at 50 µg/cm2: 50 to 100%
[3]
  mortality at 200 ppm: 0 to 80%
[4]
  YFM % Control (or Mortality) rating: A (80-100)

## Cc1ccc(C(C)C)c(N2C(=O)CS/C2=N\C(=O)NCCCCc2ccc(-c3ncn(-c4ccc(C(F)(F)F)cc4)n3)cc2)c1 [P159, (Z)-1-(3-(2-isopropyl-5-methylphenyl)-4-oxothiazolidin-2-ylidene)-34-(4-(4-(1-(4-(trifluoromethyl)phenyl)-1H-1,2,4-triazol-3-yl)phenyl)butyl)urea]
[1]
  mortality at 50 µg/cm2: 50 to 100%
[2]
  mortality at 50 µg/cm2: 50 to 100%
[3]
  mortality at 200 ppm: 0 to 80%
[4]
  YFM % Control (or Mortality) rating: A (80-100)
